Structures are written as SMILES. Bounds are passed on as bounds.

The first assay deals with SARS-CoV-2 Papain like protease (PLpro) (Severe acute respiratory syndrome coronavirus 2 (2019-nCoV) (SARS-CoV-2), UniProt P0DTD1). As to the kind of experiment: Papain Like Protease (PLpro) biochemical assay with profluorogenic substrate Z-RLRGG-AMC. Particulars: IC50 (μM), SARS-CoV-2 PLpro 6.25 nM, 25 μM Z-RLRGG-AMC substrate, 60 minute reaction.
Regarding `Cc1cc(COCc2cscn2)ccc1C(=O)N[C@H](C)c1cc(-c2cnn(C)c2)nc2ccccc12` [Example 274, (R)-2-methyl-N-(1-(2-(1-methyl-1H-pyrazol-4-yl)quinolin-4-yl)ethyl)-4-((thiazol-4-ylmethoxy)methyl)benzamide], the IC50 (usually the midpoint of a concentration-inhibition curve) is 0.002 µM.

For the molecule `Cc1cnc(N2CC3CCC(C2)N3C)cc1C(=O)NC1(c2cc(-c3cnn(C)c3)nc3ccccc23)CC1` [Example 287, 5-methyl-N-(1-(2-(1-methyl-1H-pyrazol-4-yl)quinolin-4-yl)cyclopropyl)-2-(8-methyl-3,8-diazabicyclo[3.2.1]octan-3-yl)isonicotinamide], the IC50 was determined as 0.002 µM.

Still in this assay, the particulars now being: SARS-CoV-2 PLpro 6.25 nM, 25 μM Z-RLRGG-AMC substrate, 60 minute reaction; read-out: IC50.
As to `Cc1cc(C(=O)NC2(c3ncc[nH]3)CC2)ccc1C(=O)N[C@H](C)c1cc(-c2cnn(C)c2)nc2ccccc12` [Example 242], the IC50 is 0.006 µM. Same read-out and setting: for `Cc1ccccc1C(=O)NC(C)c1cc(CN)nc2ccccc12` (stereo in doubt) [Example 158, N-{(1R)-1-[2-(aminomethyl)quinolin-4-yl]-ethyl}-2-methylbenzamide] the value was 5.48 µM.

`Cc1cc(CC(=O)O)ccc1C(=O)N[C@H](C)c1cc(-c2cnn(C)c2)nc2ccccc12` [Example 200, (R)-2-(3-methyl-4-((1-(2-(1-methyl-1H-pyrazol-4-yl)quinolin-4-yl)ethyl)carbamoyl)phenyl)acetic acid]: the IC50 is 0.792 µM. On the same count and under the same terms, for `COC[C@H](OCc1cscn1)c1ccc(C(=O)NC2(c3cc(-c4cc(C(=O)N(C)C)n[nH]4)cc4ncccc34)CC2)c(C)c1` (single isomer, unassigned) [Example 361] the value was under 0.001 µM; for `Cc1ccc(NC(=O)[C@H]2CCCCN2)cc1C(=O)NC(C)c1cc(-c2cn[nH]c2)cc2ccccc12` (single isomer, unassigned) [Example 53, (R)—N-(3-(((R*)-1-(3-(1H-pyrazol-4-yl)naphthalen-1-yl)ethyl)carbamoyl)-4-methylphenyl)piperidine-2-carboxamide], 0.478 µM; for `Cc1cc(C(C)NC(=O)c2ncc[nH]2)ccc1C(=O)N[C@H](C)c1cc(-c2cnn(C)c2)nc2ccccc12` (stereo partly drawn) [Example 270, N-(1-(3-methyl-4-(((R)-1-(2-(1-methyl-1H-pyrazol-4-yl)quinolin-4-yl)ethyl)carbamoyl)phenyl)ethyl)-1H-imidazole-2-carboxamide], 0.037 µM. As for `Cc1cc(COCc2cscn2)ccc1C(=O)NC1(c2cc(-c3cnn(CCC(=O)N(C)C)c3)nc3ccccc23)CC1` [Example 362], the IC50 is under 0.001 µM. In the case of `Cc1ccc(NC(=O)[C@H]2CCCCN2)cc1C(=O)N[C@H](C)c1cc(-n2ccnn2)nc2ccccc12` (single isomer, unassigned) [Example 30, (R)—N-(3-(((R*)-1-(2-(1H-1,2,3-triazol-1-yl)quinolin-4-yl)ethyl)carbamoyl)-4-methylphenyl)piperidine-2-carboxamide], the IC50 was determined as 7.73 µM. Same read-out and setting: for `Cc1ccccc1C(=O)NC(C)c1cc(-c2ccc3c(c2)nnn3C)nc2ccccc12` (stereo not shown) [Example 134] the value was 0.432 µM; for `CNCc1ccc(C)c(C(=O)N[C@H](C)c2cc(-c3cn[nH]c3)nc3ccccc23)c1` [Example 17, (R)—N-(1-(2-(1H-pyrazol-4-yl)quinolin-4-yl)ethyl)-2-methyl-5-((methylamino)methyl)benzamide], 0.022 µM. With `COc1c(-c2cnn(C)c2)cc(C(C)NC(=O)c2cc(CN)ccc2C)c2ccccc12` (stereo not shown) [Example 205], the IC50 was 0.043 µM. Same read-out and setting: for `Cc1cc(C[S+]([O-])Cc2nccn2C)ccc1C(=O)N[C@H](C)c1cc(-c2cnn(C)c2)nc2ccccc12` (stereo partly drawn) [Example 283, 2-methyl-4-((((1-methyl-1H-imidazol-2-yl)methyl)sulfinyl)methyl)-N—((R)-1-(2-(1-methyl-1H-pyrazol-4-yl)quinolin-4-yl)ethyl)benzamide] the value was 0.005 µM; for `CCOC(=O)[C@@H]1O[C@H]1C(=O)NNC(=O)CCc1ccccc1C(=O)N[C@H](C)c1cc(-c2cnn(C)c2)nc2ccccc12` [Example 250, ethyl (2R,3R)-3-(2-(3-(2-(((R)-1-(2-(1-methyl-1H-pyrazol-4-yl)quinolin-4-yl)ethyl)carbamoyl)phenyl)propanoyl)hydrazine-1-carbonyl)oxirane-2-carboxylate], 0.002 µM; for `Cc1ccccc1C(=O)NC(C)c1cc(-c2cnn(CC3(C#N)CC3)c2)nc2ccccc12` (stereo not shown) [Example 123, N-[1-(2-{1-[(1-cyanocyclopropyl)methyl]-1H-pyrazol-4-yl}quinolin-4-yl)ethyl]-2-methylbenzamide], 0.329 µM.

With `Cc1cc(C(=O)NCc2nccn2C)ccc1C(=O)N[C@H](C)c1cc(-c2cnn(C)c2)nc2ccccc12` [Example 271], the IC50 turned out to be 0.005 µM. Turning to `Cc1cc(CN(C)Cc2cscn2)ccc1C(=O)N[C@H](C)c1cc(-c2cnn(C)c2)nc2ccccc12` [Example 266, (R)-2-methyl-4-((methyl(thiazol-4-ylmethyl)amino)methyl)-N-(1-(2-(1-methyl-1H-pyrazol-4-yl)quinolin-4-yl)ethyl)benzamide], the IC50 came to 0.024 µM.

Take `Cc1ccc(N2C[C@H]3C[C@@H]2CN3C)cc1C(=O)N[C@H](C)c1cc(-c2cnn(C)c2)nc2ccccc12` (single isomer, unassigned) [Example 280, 2-methyl-N—((R)-1-(2-(1-methyl-1H-pyrazol-4-yl)quinolin-4-yl)ethyl)-5-((1R*,4R*)-5-methyl-2,5-diazabicyclo[2.2.1]heptan-2-yl)benzamide]: the IC50 came out at 0.017 µM.

As for `Cc1ccccc1C(=O)NC(C)c1cc(-c2cc(C(C)C)no2)nc2ccccc12` (stereo not shown) [Example 124, 2-methyl-N-(1-{2-[3-(propan-2-yl)-1,2-oxazol-5-yl]quinolin-4-yl}ethyl)benzamide], the 50% inhibitory concentration (IC50) stood at 0.635 µM.

Regarding `Cc1cc(C(C)NC(=O)c2cscn2)ccc1C(=O)N[C@H](C)c1cc(-c2cnn(C)c2)nc2ccccc12` (stereo partly drawn) [Example 269, N-(1-(3-methyl-4-(((R)-1-(2-(1-methyl-1H-pyrazol-4-yl)quinolin-4-yl)ethyl)carbamoyl)phenyl)ethyl)thiazole-4-carboxamide], the IC50 is 0.041 µM. The same measure, in the same setting: for `CNCc1ccc(C)c(C(=O)NC(C)c2cc(-c3cnn(C)c3)cc3ccccc23)c1` (stereo not shown) [Example 10, 2-methyl-N-(1-(3-(1-methyl-1H-pyrazol-4-yl)naphthalen-1-yl)ethyl)-5-((methylamino)methyl)benzamide] the value was 0.033 µM; for `CCN(CCOC)c1cc(C(C)NC(=O)c2ccccc2C)c2ccccc2n1` (stereo not shown) [Example 149, N-(1-{2-[ethyl(2-methoxyethyl)amino]quinolin-4-yl}ethyl)-2-methylbenzamide], 2.17 µM. The same measure, in the same setting: the figure for `Cc1cc(CNC(=O)c2cscn2)ccc1C(=O)NC(C)c1cc(-c2cnn(C)c2)cc2ccccc12` (stereo not shown) [Example 54, N-(3-methyl-4-((1-(3-(1-methyl-1H-pyrazol-4-yl)naphthalen-1-yl)ethyl)carbamoyl)benzyl)thiazole-4-carboxamide] is 0.028 µM; for `Cc1ccc(NC(=O)[C@H]2CCCCN2)cc1C(=O)N[C@H](C)c1cc(-n2ccnn2)nc2ccccc12` (single isomer, unassigned) [Example 29, (R)—N-(3-(((R*)-1-(2-(1H-1,2,3-triazol-1-yl)quinolin-4-yl)ethyl)carbamoyl)-4-methylphenyl)piperidine-2-carboxamide] it is 0.1 µM; for `CNC(=O)c1c[nH]c(-c2cc(C(C)NC(=O)c3cc(CN)ccc3C)c3ccccc3c2)c1` (stereo not shown) [Example 71, 5-(4-(1-(5-(aminomethyl)-2-methylbenzamido)ethyl)naphthalen-2-yl)-N-methyl-1H-pyrrole-3-carboxamide] it is 0.016 µM.

`COC(=O)/C=C/C(=O)NNC(=O)CCc1ccccc1C(=O)N[C@H](C)c1cc(-c2cnn(C)c2)nc2ccccc12` [Example 63, methyl(R,E)-4-(2-(3-(2-((1-(2-(1-methyl-1H-pyrazol-4-yl)quinolin-4-yl)ethyl)carbamoyl)phenyl)propanoyl)hydrazineyl)-4-oxobut-2-enoate]: the IC50 turned out to be 0.003 µM. On the same count and under the same terms, the figure for `Cc1ccc(N2CCN(C)CC2)cc1C(=O)NC(C)c1cc(-c2cc(C(=O)O)c[nH]2)cc2ccccc12` (stereo not shown) [Example 216, 5-(4-(1-(2-methyl-5-(4-methylpiperazin-1-yl)benzamido)ethyl)naphthalen-2-yl)-1H-pyrrole-3-carboxylic acid] is 0.012 µM; for `Cc1ccccc1C(=O)NC(C)c1cc(-c2cnn(C)n2)nc2ccccc12` (stereo not shown) [Example 135, 2-methyl-N-{1-[2-(2-methyl-2H-1,2,3-triazol-4-yl)quinolin-4-yl]ethyl}benzamide] it is 0.855 µM; for `Cc1nc(CNC(=O)c2ccc(C(=O)N[C@H](C)c3cc(-c4cnn(C)c4)nc4ccccc34)c(C)c2)cs1` [Example 204] it is 0.073 µM. The same measure, in the same setting: the figure for `Cc1ccccc1C(=O)NC(C)c1cc(NCCS(=O)(=O)N(C)C)nc2ccccc12` (stereo not shown) [Example 148, N-[1-(2-{[2-(dimethylsulfamoyl)ethyl]amino}quinolin-4-yl)ethyl]-2-methylbenzamide] is 1.77 µM; for `Cc1cc(COCc2cocn2)ccc1C(=O)NC1(c2cc(-c3cc(C(=O)N(C)C)n[nH]3)nc3ccccc23)CC1` [Example 346, N,N-dimethyl-5-(4-(1-(2-methyl-4-((oxazol-4-ylmethoxy)methyl)benzamido)cyclopropyl)quinolin-2-yl)-1H-pyrazole-3-carboxamide] it is under 0.001 µM; for `Cc1cc(COCc2cscn2)ccc1C(=O)NC1(c2cc(-c3cc(C(=O)N(C)C)n[nH]3)cc3ncccc23)CC1` [Example 351, N,N-dimethyl-5-(5-(1-(2-methyl-4-((thiazol-4-ylmethoxy)methyl)benzamido)cyclopropyl)quinolin-7-yl)-1H-pyrazole-3-carboxamide] it is under 0.001 µM. The same measure, in the same setting: the figure for `Cc1ccccc1C(=O)NC(C)c1cc(-c2c(C#N)cnn2C)nc2ccccc12` (stereo not shown) [Example 108, N-{1-[2-(4-cyano-1-methyl-1H-pyrazol-5-yl)quinolin-4-yl]ethyl}-2-methylbenzamide] is 0.931 µM.

The values above are taken from patent US20240245673A1, “Papain-like protease (PLpro) inhibitors” (Pfizer Inc., priority 2022, published 2024).
